Data published in patent publication US11697772B2, “Hydrotropic composition and its uses” (KEMIRA OYJ, priority 2017, dated 2023).
Where “and” joins values, the source holds several entries; their conditions need not be identical. Equal entries are not always repeated. Where two headings read alike, the source gives them in different places.

Legend:
[1] = Differential scanning calorimetry of IL/DPPC liposome mixtures (main phase transition); format: physicochemical; conditions: for Loss of transition (concentration range within which the phase transition was no longer detected): DPPC liposomes 0.4 mM lipid, DSC heating scans
Protocol: The median effective concentrations (EC50) were determined for each IL. Since the toxic effect was thought to be caused by permeation of these surface-active molecules into the cell wall of the bacteria, related interactions of ILs with biomimetic liposomes were investigated utilizing differential scanning calorimetry (DSC). In DSC experiments, dipalmitoyl phosphatidylcholine (DPPC) liposomes were used as biomimicking membranes and the change in the main phase transition temperature (Tm) of the DPPC bilayer was followed, as a function of the IL concentrations. Such measurements could potentially offer more information on how the aforementioned ILs interact with the lipid bilayers. Lastly, the critical micelle concentrations (CMC) were defined for the ILs. Based on the CMCs, it can be defined if the ILs are dissolved as singly dispersed molecules or form a dispersion of spherical micelles, or other self-assembled structures (aggregates). Therefore, it can be determined if the interactions with the bacteria or liposomes take place between IL aggregates or singly dispersed IL molecules.
The DSC experiments were performed in order to find out the IL concentrations that induce the drift in the DPPC bilayer phase transition temperature. FIG. 3 illustrates the representative endotherms, which were recorded during the second heating scans. Since the heating and the cooling scans were performed three times, the second heating endotherm was selected as the representative one. […] If the baseline variations observed during the first heating scans were not observed on the following two scans and with other concentrations of the same ILs, they were regarded as artefacts. […] Cooling scans (not shown) were recorded in order to follow the stability of the system, however, no further analysis of the cooling scans was performed. Such heating and cooling scans are standard in DSC experiments.
The DSC results are discussed in more detail in the following text for each IL carboxylate group. Instead of referring to the peak areas, which define the energy taken by the transition (cal/° C./mol), corresponding peak heights are referred to in the text, since the relative changes in the peak heights are more easily observed by visual inspection.
A stock solution of DPPC was prepared by dissolving DPPC in chloroform. Required amount of the stock solution was transferred into a glass test tube and the chloroform was evaporated under airflow in order to form a thin film of DPPC on the walls of the tube. The air-dried lipid film was held under vacuum desiccator at least for 2 h to remove the residual solvent. The lipid was dispersed into water to obtain a 4.0 mM liposome stock. The dispersion was incubated in an ultrasonication water bath for 30 min at 60° C. facilitating the formation of multilamellar liposomes.
DSC was utilized in observing the changes induced by the ILs in the organization of the lipid bilayers. Here DPPC was used because the Tm of the bilayer is well recognized—approximately 41.3° C. […] There are two additional transitions observed for DPPC aqueous solutions; the subtransition at 21° C. and the pretransition at 36° C.

Vibrio fischeri bacteria = experiment: Vibrio fischeri toxicity assay (Microtox, decay of bioluminescence); format: cell-based
Protocol: The toxicities were determined by exposing Vibrio fischeri marine bacteria to aqueous solutions of ILs in differing concentrations. These bacteria have successfully been used for IL toxicity assessments in a myriad of studies. A recent comparison was performed between V. fischeri and three other standardized toxicity assays utilizing aquatic organisms, namely Daphnia magna (a fresh water crustacean), Selenastrum capricomutum (a freshwater algae) and Phaeodactylum tricomutum (a seawater algae).
The toxicity measurements were performed from an ecotoxicological point of view, since ILs are potentially hazardous for the environment and particularly for organisms in aquatic environments. Therefore, V. fischeri marine bacteria were utilized in these measurements. EC50 values were determined for seven water-soluble surface-active ILs. The ILs in this study included Ch-, GND-, TMG-based ILs with straight and branched (iso and neo forms) fatty acid chains, namely isostearates, decanotes and neodecanoates. As a reference, the toxicities of the sodium salts of these carboxylates were measured in order to obtain information on the effect of the cation on the toxicities of the ILs.
The toxicities of the ILs were defined by measuring their EC50 values using V. fischeri bacteria and Microtox luminometer/thermostate apparatus (Modern Water, USA). The response measured in this assay is the decay of bioluminescence produced by the bacteria. In short, the bioluminescence was measured before the exposure on the potentially toxic compound to determine the baseline luminescence. Consequently, the bacteria were exposed on minimum four differing toxicant concentrations in 2% (w/v) NaCl solution and the decay in the luminescence was recorded. Based on the concentration-dependent decay the EC50 value was defined. The toxicities were defined at set time intervals of 5 and 15 minutes. Two independent measurements were performed for each IL as duplicates.

[2] = Critical micelle concentration by optical pendant drop method (surface tension); format: physicochemical; conditions: in water, superscript L logarithmic fitting, S sigmoidal fitting
From the text: The surface-active molecules (surfactants) dissolve in aqueous solutions as monomers to certain concentration threshold, after which they start to build up into differing aggregates. This concentration threshold is called critical micellar concentration (CMC). However, for many surfactants the CMC is moreover a concentration range, not a specific concentration point, and the width of the range depends greatly on the structure of the compound. […] The optical pendant drop method using a contact angle meter (CAM 200, KSV Instruments, Espoo, Finland) was used for determining the CMCs. In short, a series of differing IL concentrations in water solution was investigated. A pendant-drop of a constant height was formed and the surface tension of the drop was determined based on the drop curvature by using a fitting method according to Young-Laplace equation. The surface tension was determined based on the curvature and plotted as a function of the IL concentration. The surface tension of the drop decreases as a function of increasing surfactant concentration because the singly dispersed IL molecules diffuse and orientate at the air-water interface and therefore reduce the surface tension. When the concentration reaches the CMC, the singly dispersed molecules form aggregates and no additional molecules diffuse to the surface of the drop. Therefore no change in surface tension is observed. The CMCs were determined based on the intersection point of two trend lines fitted based on the data. The surface tension was either plotted as a function of IL concentration or logarithm of the concentration and either sigmoidal or logarithmic fit, respectively, was used. The choice of method was dependent on which method provided the best fit.

[3] = DPPC liposomes, earlier DSC investigation; cited from earlier work
[4] = Vibrio fischeri, 5 min incubation, 2% (w/v) NaCl solution, read-out: EC50 5min
[5] = Vibrio fischeri, 15 min incubation, 2% (w/v) NaCl solution, read-out: EC50 15min
[6] = Aliivibrio fischeri, 5 min, Vibrio fischeri, 5 min incubation, 2% (w/v) NaCl solution, read-out: EC50 5min
[7] = Aliivibrio fischeri, 0.25 h, Vibrio fischeri, 15 min incubation, 2% (w/v) NaCl solution, read-out: EC50 15min

Compound	Loss of transition (concentration range within which the phase transition was no longer detected) [1]	EC50 (Vibrio fischeri bacteria; [4])	EC50 (Vibrio fischeri bacteria; [5])	CMC (critical micelle concentration) [2]	other results
1,1,3,3-Tetramethylguanidinium isostearate [TMG Isostearate]	0.5 to 1.0 mM	94 ± 1 µM	62 ± 5 µM	0.30 ± 0.04^S mM	
1,1,3,3-tetramethylguanidinium neodecanoate [TMG Neodecanoate]		700 ± 70 µM	650 ± 70 µM	261 ± 11^L mM	
CCCCCCCCC(=O)[O-].C[N+](C)(C)CCO [Ch nonanoate]					highest concentration at which a peak for the Tm was still observed [3]: 50 mM
CC(C)CCCCCCCCCCCCCCC(=O)[O-].[Na+] [Na Isostearate, sodium isostearate, reference compound]	0.001 to 0.01 mM			0.72 ± 0.06^L mM	EC50 (Vibrio fischeri bacteria; [6]): 110 ± 10 µM; EC50 (Vibrio fischeri bacteria; [7]): 81 ± 4 µM
CC(C)(C)CCCCCC(=O)[O-].[Na+] [Na Neodecanoate, sodium neodecanoate, reference compound]	40 to 60 mM			422 ± 38^L mM	EC50 (Vibrio fischeri bacteria; Aliivibrio fischeri, 5 min, read-out: EC50 5min): 500 ± 20 µM; EC50 (Vibrio fischeri bacteria; Aliivibrio fischeri, 0.25 h, read-out: EC50 15min): 473 ± 6 µM
CCCCCCCCCC(=O)[O-].[Na+] [Na decanoate, sodium decanoate, reference compound]				22±3 mM and 22 ± 3^L mM	Tm of DPPC bilayer ([1]; 50 mM IL, 0.4 mM DPPC): above 35 °C; EC50 (Vibrio fischeri bacteria; [6]): 130 ± 20 µM; EC50 (Vibrio fischeri bacteria; [7]): 130 ± 20 µM
Choline isostearate [Ch Isostearate]	0.5 to 1.0 mM	130 ± 20 µM	74 ± 5 µM	0.50 ± 0.06^L mM	CMC (critical micelle concentration) ([2]; listed as Ch isostearate): ~0.5 mM
Guanidinium isostearate [GND Isostearate]	0.5 to 1.0 mM	98 ± 2 µM	66 ± 5 µM	0.31 ± 0.08^S mM	
choline decanoate [Ch Decanoate]	2.0 to 5.0 mM	100 ± 20 µM	100 ± 20 µM		concentrations at which the ILs affected the liposomes ([1]; DPPC liposomes 0.4 mM, DSC): 0.5 to 5 mM
choline neodecanoate [Ch Neodecanoate]		560 ± 60 µM	520 ± 80 µM	319 ± 13^L mM	highest concentration at which the transition peak was still observed ([1]; 0.4 mM DPPC, no higher concentrations measured): 60 mM
guanidinium neodecanoate [GND Neodecanoate]	15.0 to 25.0 mM	730 ± 90 µM	690 ± 70 µM	118 ± 2^L mM	
